Measurements as given in ChEMBL document CHEMBL1201861, “Genomics of Drug Sensitity in Cancer screening data, Wellcome Trust Sanger Institute”.

Legend:
Assay in all cases: cells
[1] = test system: HL-60; type: functional, cell-based; conditions: Homo sapiens;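 also: growth inhibition of human HL-60 cells, read out with a cell viability assay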
Description: SANGER: Inhibition of human HL-60 cell growth in a cell viability assay.

[2] = test system: COLO-684; type: functional, cell-based; conditions: Homo sapiens
Description: SANGER: Inhibition of human COLO-684 cell growth in a cell viability assay.

[3] = test system: SW872; type: functional, cell-based, Homo sapiens; conditions: Homo sapiens, SW872;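 also: growth inhibition of SW872 cells, read out by a viability assay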
Description: SANGER: Inhibition of human SW872 cell growth in a cell viability assay.

[4] = test system: D-542MG; type: functional, cell-based, Homo sapiens; conditions: Homo sapiens, D-542MG
Description: SANGER: Inhibition of human D-542MG cell growth in a cell viability assay.

[5] = test system: JAR; type: functional, cell-based, Homo sapiens; conditions: Homo sapiens, JAR;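 also: growth inhibition of human JAR cells determined with a cell viability assay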
Description: SANGER: Inhibition of human JAR cell growth in a cell viability assay.

[6] = test system: no-11; type: functional, cell-based, Homo sapiens; conditions: Homo sapiens;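 also: growth inhibition of human NO-11 cells, read out with a cell viability assay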
Description: SANGER: Inhibition of human no-11 cell growth in a cell viability assay.

[7] = test system: DU-4475; type: functional, cell-based; conditions: Homo sapiens
Description: SANGER: Inhibition of human DU-4475 cell growth in a cell viability assay.

[8] = test system: KARPAS-299; type: functional, cell-based; conditions: Homo sapiens
Description: SANGER: Inhibition of human KARPAS-299 cell growth in a cell viability assay.

[9] = test system: SK-LMS-1; type: functional, cell-based, Homo sapiens; conditions: Homo sapiens, SK-LMS-1;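 also: growth inhibition of human SK-LMS-1 cells, read out with a cell viability assay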
Description: SANGER: Inhibition of human SK-LMS-1 cell growth in a cell viability assay.

[10] = test system: BB65-RCC; type: functional, cell-based, Homo sapiens; conditions: Homo sapiens, BB65-RCC;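 also: growth inhibition of the cell line, measured with a cell viability assay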
Description: SANGER: Inhibition of human BB65-RCC cell growth in a cell viability assay.

[11] = test system: TE-8; type: functional, cell-based, Homo sapiens; conditions: Homo sapiens, TE-8;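 also: growth inhibition of TE-8 cells, measured with a cell viability readout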
Description: SANGER: Inhibition of human TE-8 cell growth in a cell viability assay.

[12] = test system: DEL; type: functional, cell-based; conditions: Homo sapiens;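 also: growth inhibition of the human DEL cell line, read out with a cell viability assay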
Description: SANGER: Inhibition of human DEL cell growth in a cell viability assay.

[13] = test system: NCI-H209; type: functional, cell-based; conditions: Homo sapiens;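 also: growth inhibition of human NCI-H209 cells, measured by a cell viability assay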
Description: SANGER: Inhibition of human NCI-H209 cell growth in a cell viability assay.

[14] = test system: SNU1; type: functional, cell-based; conditions: Homo sapiens;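 also: growth inhibition of human NCI-SNU-1 cells, measured with a cell viability assay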
Description: SANGER: Inhibition of human NCI-SNU-1 cell growth in a cell viability assay.

[15] = test system: NCI-H1770; type: functional, cell-based; conditions: Homo sapiens;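 also: growth inhibition of NCI-H1770 cells determined with a viability readout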
Description: SANGER: Inhibition of human NCI-H1770 cell growth in a cell viability assay.

[16] = test system: LNCaP-Clone-FGC; type: functional, cell-based, Homo sapiens; conditions: Homo sapiens, LNCaP-Clone-FGC
Description: SANGER: Inhibition of human LNCaP-Clone-FGC cell growth in a cell viability assay.

[17] = test system: NCI-H23; type: functional, cell-based, Homo sapiens; conditions: Homo sapiens, NCI-H23;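 also: cell viability assay measuring growth inhibition of NCI-H23 cells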
Description: SANGER: Inhibition of human NCI-H23 cell growth in a cell viability assay.

[18] = test system: COLO-829; type: functional, cell-based, Homo sapiens; conditions: Homo sapiens, COLO-829
Description: SANGER: Inhibition of human COLO-829 cell growth in a cell viability assay.

[19] = test system: SK-MEL-1; type: functional, cell-based; conditions: Homo sapiens;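 also: growth inhibition of human SK-MEL-1 cells, read out by a cell viability assay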
Description: SANGER: Inhibition of human SK-MEL-1 cell growth in a cell viability assay.

[20] = test system: UACC-257; type: functional, cell-based, Homo sapiens; conditions: Homo sapiens, UACC-257
Description: SANGER: Inhibition of human UACC-257 cell growth in a cell viability assay.

[21] = test system: NCI-H526; type: functional, cell-based; conditions: Homo sapiens;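 also: growth inhibition of the human NCI-H526 cell line, measured by a cell viability assay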
Description: SANGER: Inhibition of human NCI-H526 cell growth in a cell viability assay.

[22] = test system: ACN; type: functional, cell-based, Homo sapiens; conditions: Homo sapiens, ACN;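 also: growth inhibition of the human ACN cell line, read out via cell viability testing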
Description: SANGER: Inhibition of human ACN cell growth in a cell viability assay.

[23] = test system: MZ2-MEL; type: functional, cell-based, Homo sapiens; conditions: Homo sapiens, MZ2-MEL;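 also: growth inhibition of MZ2-MEL cells read out with a cell viability assay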
Description: SANGER: Inhibition of human MZ2-MEL cell growth in a cell viability assay.

[24] = test system: TE-5; type: functional, cell-based, Homo sapiens; conditions: Homo sapiens, TE-5;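 also: inhibition of cell growth, read out by a cell viability assay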
Description: SANGER: Inhibition of human TE-5 cell growth in a cell viability assay.

[25] = test system: HT-144; type: functional, cell-based, Homo sapiens; conditions: Homo sapiens, HT-144
Description: SANGER: Inhibition of human HT-144 cell growth in a cell viability assay.

SMILES	IC50 [1] [µM]	IC50 [2] [µM]	IC50 [3] [µM]	IC50 [4] [µM]	IC50 [5] [µM]	IC50 [6] [µM]	IC50 [7] [µM]	IC50 [8] [µM]	IC50 [9] [µM]	IC50 [10] [µM]	IC50 [11] [µM]	IC50 [12] [µM]	IC50 [13] [µM]	IC50 [14] [µM]	IC50 [15] [µM]	IC50 [16] [µM]	IC50 [17] [µM]	IC50 [18] [µM]	IC50 [19] [µM]	IC50 [20] [µM]	further results
C=C1C(=O)O[C@@H]2C3O[C@]3(C)CC/C=C(\C)CC[C@@H]12 (stereo not given in full)	> 5	> 5	> 5	> 5	> 5	> 5	> 5	> 5	> 5	> 5	> 5	> 5	> 5	> 5	> 5	> 5	> 5	> 5	> 5	> 5	IC50 [21]: > 5 µM; IC50 [22]: > 5 µM; IC50 [23]: > 5 µM; IC50 [24]: > 5 µM; IC50 [25]: > 5 µM
CC1=C2C[C@H]3[C@@H](CC=C4C[C@@H](O)CC[C@@]43C)[C@@H]2CC[C@]12O[C@@H]1C[C@H](C)CN[C@H]1[C@H]2C [CYCLOPAMINE]	> 16	> 16	> 16	> 16	> 16	> 16	> 16	> 16	> 16	> 16	> 16	> 16	> 16	> 16	> 16	> 16	> 16	> 16	> 16	> 16	IC50 [21]: > 16 µM; IC50 [22]: > 16 µM; IC50 [23]: > 16 µM; IC50 [24]: > 16 µM; IC50 [25]: > 16 µM
CS(=O)(=O)CCNCc1ccc(-c2ccc3ncnc(Nc4ccc(OCc5cccc(F)c5)c(Cl)c4)c3c2)o1 [LAPATINIB]	> 2	> 2	> 2	> 2	> 2	> 2	> 2	> 2	> 2	> 2	> 2	> 2	> 2	> 2	> 2	> 2	> 2	> 2	> 2	> 2	IC50 [21]: > 2 µM; IC50 [22]: > 2 µM; IC50 [23]: > 2 µM; IC50 [24]: > 2 µM; IC50 [25]: > 2 µM
CCc1nc(N)nc(N)c1-c1ccc(Cl)cc1 [PYRIMETHAMINE]	> 20	6.76	> 20	> 20	> 20	> 20	> 20	> 20	> 20	> 20	> 20	3.93	6.06	14.7	> 20	> 20	6.54	7.28	> 20	3.84	IC50 [21]: 7.92 µM; IC50 [22]: 2.3 µM; IC50 [23]: > 20 µM; IC50 [24]: > 20 µM; IC50 [25]: 6.8 µM
